Values quoted from earlier work in patent US9603795B2, “Composite for preparing a transdermal delivery device and method for synthesizing the composite thereof” (City University of Hong Kong, priority 2014, dated 2017).

Conditions: oral administration

## OC[C@H]1O[C@@H]2O[C@H]3[C@H](O)[C@@H](O)[C@@H](O[C@H]4[C@H](O)[C@@H](O)[C@@H](O[C@H]5[C@H](O)[C@@H](O)[C@@H](O[C@H]6[C@H](O)[C@@H](O)[C@@H](O[C@H]7[C@H](O)[C@@H](O)[C@@H](O[C@H]8[C@H](O)[C@@H](O)[C@@H](O[C@H]1[C@H](O)[C@H]2O)O[C@@H]8CO)O[C@@H]7CO)O[C@@H]6CO)O[C@@H]5CO)O[C@@H]4CO)O[C@@H]3CO [β-CD, β-cyclodextrin]
  amount absorbed in the upper intestinal tract: 1-2%
